Data as given in PMC7549094 (Journal of Medicinal Chemistry, 2020).
Read-outs that look alike come from different tables or passages of the source.

What was measured:
hr ERa ag = hr ERa ag (Homo sapiens, UniProt P03372); experiment: receptor profile (Table S4); format: biochemical
[1] = Balb/C mice, 20 mg/kg PO; dose-normalized
Procedure: In Vivo PK Studies in Mice.
The solution was filtered using a 0.45 m syringe filter before dosing. Two male Balb/c mice were administered 1 intravenously via the lateral tail
vein at 5 mg/kg with a dose volume of 2.0 mL/kg. 1 was also formulated in a suspension of 0.5%
methylcellulose with 0.5% Tween 80 (0.5% MC/0.5% Tw80) in water at 2.5 mg/mL. A group of mice
(n=3) were administered 1 orally via gavage at 20 mg/kg with a dose volume of 8.0 mL/kg.
The mouse blood samples were centrifuged to separate plasma and the plasma samples were frozen at -
In Vivo PK Studies in Rats.
Two male Wistar rats were administered
1 intravenously via the lateral tail vein at 3 mg/kg with a dose volume of 1.0 mL/kg. 1 was also formulated
in a suspension of 0.5% methylcellulose with 0.5% Tween 80 (0.5% MC/0.5% Tw80) in water at 2.0
mg/mL. The second group of rats (n=3) were administered 1 orally via gavage at 10 mg/kg in suspension
with a dose volume of 5.0 mL/kg. Six blood samples of 100 μL each were collected serially from each
animal via the saphenous vein up to 24 hours after dosing. The rat blood samples were centrifuged to
separate plasma and the plasma samples were frozen at -20°C until analysis.
In Vivo PK Studies in Dogs.
The solution was filtered using a 0.45 m syringe filter before dosing. Three male Beagle dogs were administered 1 intravenously via saphenous
vein at 0.3 mg/kg with a dose volume of 0.1 mL/kg. 1 was also formulated in a suspension of 0.5%
methylcellulose with 0.5% Tween 80 (0.5%MC/0.5% Tween 80) in water at 1.0 mg/mL. The second
group of male dogs (n=2) were administered 1- orally via gavage at 1.0 mg/kg with a dose volume of 1.0
mL/kg. Seven blood samples of 250 µL each were collected serially from each animal via the jugular vein
The dog blood samples were centrifuged to separate plasma and the plasma
samples were frozen at -20 °C until analysis.

hr Ad2A = hr Ad2A (Homo sapiens, UniProt P29274); experiment: receptor profile (Table S4); format: binding
PXR = PXR (Homo sapiens, UniProt O75469); experiment: receptor profile (Table S4); settings: human
hr PXR antag = hr PXR antag (Homo sapiens, UniProt O75469); experiment: receptor profile (Table S4); settings: hr PXR antag
hr TP ag = biological target: T1, hr TP ag (Homo sapiens, UniProt P21731); experiment: receptor profile (Table S4); format: biochemical
T1 sequence (P21731 1-343): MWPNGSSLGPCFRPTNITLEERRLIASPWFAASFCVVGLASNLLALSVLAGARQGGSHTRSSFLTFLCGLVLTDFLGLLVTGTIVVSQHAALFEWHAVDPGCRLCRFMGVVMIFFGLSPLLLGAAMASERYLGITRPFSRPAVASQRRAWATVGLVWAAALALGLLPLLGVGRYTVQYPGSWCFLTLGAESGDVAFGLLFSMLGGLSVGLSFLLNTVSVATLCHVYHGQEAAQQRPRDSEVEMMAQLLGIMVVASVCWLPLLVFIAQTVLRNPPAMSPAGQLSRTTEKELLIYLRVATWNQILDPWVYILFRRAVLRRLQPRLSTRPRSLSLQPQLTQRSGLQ

[2] = system: intramacrophage L. donovani amastigotes; experiment: L. donovani amastigote proliferation within primary mouse macrophages; format: cell-based; settings: Leishmania donovani, Macrophage
[3] = pharmacokinetics, summary across preclinical species; format: in vivo, rat, dog, cynomolgus monkey
hr M2 antag = biological target: T2, hr M2 antag (Homo sapiens, UniProt P08172); experiment: receptor profile (Table S4); format: biochemical
T2 sequence (P08172 1-466): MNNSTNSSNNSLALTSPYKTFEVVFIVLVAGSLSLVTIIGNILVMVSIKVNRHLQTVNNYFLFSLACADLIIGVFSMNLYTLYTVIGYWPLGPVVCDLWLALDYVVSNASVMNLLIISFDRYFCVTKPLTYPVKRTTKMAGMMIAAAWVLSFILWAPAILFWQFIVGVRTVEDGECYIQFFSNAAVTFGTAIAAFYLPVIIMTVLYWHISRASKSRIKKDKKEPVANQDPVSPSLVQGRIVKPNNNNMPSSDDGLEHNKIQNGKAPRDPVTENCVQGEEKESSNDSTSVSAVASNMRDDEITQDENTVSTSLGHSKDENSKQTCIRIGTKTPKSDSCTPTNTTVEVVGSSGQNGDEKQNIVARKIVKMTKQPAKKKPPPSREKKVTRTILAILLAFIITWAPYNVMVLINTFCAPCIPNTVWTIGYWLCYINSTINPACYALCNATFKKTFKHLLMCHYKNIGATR

hr Al1A antag = biological target: T3, hr Al1A antag (Homo sapiens, UniProt P35348); experiment: receptor profile (Table S4); format: biochemical
T3 sequence (P35348 1-466): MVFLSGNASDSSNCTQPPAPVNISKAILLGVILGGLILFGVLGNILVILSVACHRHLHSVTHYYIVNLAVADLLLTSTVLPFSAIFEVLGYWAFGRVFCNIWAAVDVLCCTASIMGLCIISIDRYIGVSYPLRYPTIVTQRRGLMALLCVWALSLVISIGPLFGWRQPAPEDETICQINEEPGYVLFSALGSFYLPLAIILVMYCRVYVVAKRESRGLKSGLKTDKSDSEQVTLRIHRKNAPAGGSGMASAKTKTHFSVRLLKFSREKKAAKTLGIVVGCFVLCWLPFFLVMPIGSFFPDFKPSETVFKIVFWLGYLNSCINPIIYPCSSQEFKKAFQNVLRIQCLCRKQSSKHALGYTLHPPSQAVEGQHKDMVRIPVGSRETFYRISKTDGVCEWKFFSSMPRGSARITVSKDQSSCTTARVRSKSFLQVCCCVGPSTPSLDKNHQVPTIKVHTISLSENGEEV

[4] = metabolite profile in mouse hepatocytes; format: in vitro ADME; settings: 10 μM of 1 for 4 h, UV 250 nm, normalized to largest peak
hr TP antag = biological target: T4, hr TP antag (Homo sapiens, UniProt P21731); experiment: receptor profile (Table S4); format: biochemical
T4 sequence (P21731 1-343): T1 sequence (P21731 1-343)

[5] = male beagle dog, 1.0 mg/kg PO, dose-normalized

hr ERa ag, sequence (P03372 whole entry): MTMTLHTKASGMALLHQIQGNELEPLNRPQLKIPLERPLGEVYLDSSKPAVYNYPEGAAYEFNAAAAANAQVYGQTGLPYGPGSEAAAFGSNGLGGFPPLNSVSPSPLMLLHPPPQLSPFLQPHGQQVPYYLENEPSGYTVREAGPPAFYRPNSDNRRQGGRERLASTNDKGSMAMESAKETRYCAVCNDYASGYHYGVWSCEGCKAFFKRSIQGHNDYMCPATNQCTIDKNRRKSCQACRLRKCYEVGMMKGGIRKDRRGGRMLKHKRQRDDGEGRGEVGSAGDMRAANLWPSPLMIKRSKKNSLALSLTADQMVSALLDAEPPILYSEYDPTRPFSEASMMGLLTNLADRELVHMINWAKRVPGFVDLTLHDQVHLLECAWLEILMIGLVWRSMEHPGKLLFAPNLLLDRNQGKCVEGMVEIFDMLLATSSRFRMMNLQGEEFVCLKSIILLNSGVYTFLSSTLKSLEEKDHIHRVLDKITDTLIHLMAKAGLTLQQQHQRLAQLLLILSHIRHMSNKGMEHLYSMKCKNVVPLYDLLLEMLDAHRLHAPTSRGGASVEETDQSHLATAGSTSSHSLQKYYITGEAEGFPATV
hr Ad2A, sequence (P29274 whole entry): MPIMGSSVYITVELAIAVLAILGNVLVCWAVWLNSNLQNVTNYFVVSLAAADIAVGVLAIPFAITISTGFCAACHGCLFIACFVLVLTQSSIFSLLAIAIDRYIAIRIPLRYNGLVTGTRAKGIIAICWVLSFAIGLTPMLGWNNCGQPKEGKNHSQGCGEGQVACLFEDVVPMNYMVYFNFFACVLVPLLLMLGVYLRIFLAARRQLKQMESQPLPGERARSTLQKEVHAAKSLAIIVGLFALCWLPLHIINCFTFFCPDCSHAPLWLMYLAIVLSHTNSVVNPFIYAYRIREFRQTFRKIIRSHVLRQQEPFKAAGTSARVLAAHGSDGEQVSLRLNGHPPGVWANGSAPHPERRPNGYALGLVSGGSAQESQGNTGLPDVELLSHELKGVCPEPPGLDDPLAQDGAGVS
PXR, sequence (O75469 whole entry): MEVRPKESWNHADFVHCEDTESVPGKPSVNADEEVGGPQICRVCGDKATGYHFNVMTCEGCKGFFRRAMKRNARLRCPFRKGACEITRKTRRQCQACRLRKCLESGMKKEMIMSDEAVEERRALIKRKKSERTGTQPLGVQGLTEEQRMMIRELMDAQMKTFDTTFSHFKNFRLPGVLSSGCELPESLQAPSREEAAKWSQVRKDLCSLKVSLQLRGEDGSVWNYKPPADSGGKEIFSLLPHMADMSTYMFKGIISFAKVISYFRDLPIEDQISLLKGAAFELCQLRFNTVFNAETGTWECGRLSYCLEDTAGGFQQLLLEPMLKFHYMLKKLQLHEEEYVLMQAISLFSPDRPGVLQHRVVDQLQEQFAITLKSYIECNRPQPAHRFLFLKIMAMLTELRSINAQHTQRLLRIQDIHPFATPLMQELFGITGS
hr PXR antag, sequence (O75469 whole entry): as above

Work on Cc1nc(C)c(C(=O)Nc2ccc(F)c(-c3nc4ncc(-c5ncccc5C)cn4n3)c2)o1 [compound 1, N-(4-Fluoro-3-(6-(3-methylpyridin-2-yl)-[1,2,4]triazolo[1,5-a]pyrimidin-2-yl)phenyl)-2,4-dimethyloxazole-5-carboxamide] yielded an EC50/IC50 (hr ERa ag; hr ERa ag) greater than 30 µM, an inhibition at 10 µM (hr ERa ag; read-out: % inh/act @ 10 µM) of 7% and an inhibition at 30 µM (hr ERa ag; read-out: % inh/act @ 30 µM) of 15%. For the same compound, the “CL as % of hepatic blood flow” value (dog, IV, fumarate salt) was 37 % of hepatic blood flow, the “DN AUC PO” value [5] was 1.5 µM·h and the “DN Cmax PO” value [5] was 300 nM. The “DN AUC PO” value [1] was 7.5 µM·h, the “DN Cmax PO” value [1] was 800 nM and the EC50/IC50 (hr Ad2A; hr Ad2A) was greater than 30 µM. The inhibition at 10 µM (hr Ad2A; read-out: % inh/act @ 10 µM) was 26%, the inhibition at 30 µM (hr Ad2A; read-out: % inh/act @ 30 µM) was 52% and the inhibition at 10 µM (PXR) was 26%. The EC50/IC50 (hr PXR antag) was greater than 30 µM, the EC50/IC50 (hr TP ag; hr TP ag) was greater than 30 µM and the inhibition at 10 µM (hr TP ag; read-out: % inh/act @ 10 µM) was -5%. The inhibition at 30 µM (hr TP ag; read-out: % inh/act @ 30 µM) was -2%, the EC50 [2] was 0.04 µM and the bioavailability ([3]; Balb/c (mouse), Wistar (rat), beagle (dog), rat, dog, cynomolgus monkey, in vivo, po, across the tested species, conventional suspension formulations) was 27 to 67%. The half-life ([3]; male, Balb/c (mouse), Wistar (rat), beagle (dog), rat, dog, cynomolgus monkey, in vivo, across species following IV administration, read-out: plasma terminal half-life) was 3 to 10 h, the “CL as % of hepatic blood flow” value ([3]; mouse, rat, and monkey, IV, fumarate salt) was 2–17 % of hepatic blood flow and the EC50/IC50 (hr M2 antag; hr M2 antag) was greater than 30 µM. For the same compound, the inhibition at 10 µM (hr M2 antag; read-out: % inh/act @ 10 µM) was 16%, the inhibition at 30 µM (hr M2 antag; read-out: % inh/act @ 30 µM) was 31% and the EC50/IC50 (hr Al1A antag; hr Al1A antag) was greater than 30 µM. For the same compound, the inhibition at 10 µM (hr Al1A antag; read-out: % inh/act @ 10 µM) was -4%, the inhibition at 30 µM (hr Al1A antag; read-out: % inh/act @ 30 µM) was 8% and the abundance mouse [4] was “+++ (+++ > 75%)”. For the same compound, the EC50/IC50 (hr TP antag; hr TP antag) was greater than 30 µM, the inhibition at 10 µM (hr TP antag; read-out: % inh/act @ 10 µM) was 14% and the inhibition at 30 µM (hr TP antag; read-out: % inh/act @ 30 µM) was 28%.
